Results as given in patent US9766227B2, “Screening method for substance having hemocyte maturation acceleration action” (Bloom Technology Co., Ltd., priority 2010, dated 2017).
Like-named read-outs stand apart in the source and are kept apart here.

Key:
K562 cells [1] = assay: Expression pattern of RGS proteins in hemin-stimulated K562 cell maturation, Western blotting; type: cell-based; conditions: 30 μM hemin, days 3, 6, 9 and 12
Procedure: K562 cells (5×10^6 cells/10 mL) were cultured by adding 4.5 g glucose/30 μM hemin to a DMEM solvent, and 2.5 mL of the same solvent was added at 3-day intervals. Cells were collected on days 3, 6, 9, and 12, and were dissolved in 100 μL of SDS Loading Buffer (6 M Urea). 10 μL were run on a 12% SDS-GEL, and after transferring to a blotting membrane, this was reacted with respective antibodies to the R4 RGS family (herein RGS1/RGS3/RGS16/RGS18) and another RGS family (herein, RGS14).

K562 cells [2] = conditions: 0.125 mM, with 30 μM hemin
Description: Cells were collected on days 0, 3, 6, 12, and 15, and the ability to assist induction of erythrocyte differentiation was examined using cell surface markers, glycophorin A (CD235a) and transferrin receptor (CD71), as indicators.
CD235(+/−)/CD71(++) represent K562 proerythroblast-like cells, CD235(+)/CD71(++) represent K562 basophilic erythroblast-like cells, CD235(+)/CD71(+) represent K562 polychromatic erythroblast-like cells, and CD235(+)/CD71(+/−) represent K562 orthochromatic erythroblast-like cells or reticulocytes. K562 cells are CD71-non-positive cells positioned upstream of pro-erythroblasts.
(§1) Using the same system that uses K562 cells for evaluating induction of differentiation, CD235/CD71 which are the existing indicators for induction of erythrocyte differentiation, and the new indicators lactoferrin (Lf)/C5a receptor (CD88) were compared and examined. Cells were collected on days 0, 3, 6, 12, and 15, and the ability to induce differentiation into erythrocytes was examined using Lf/CD88 as the indicators.
as §1, with “FAS ligand (CD178)/C5a” for “lactoferrin (Lf)/C5a”, “CD178/CD88” for “Lf/CD88”, “indicator.” for “indicators.”

hemin
expression of RGS14 (K562 cells [1]): did not change
expression of the R4 RGS family (RGS1/RGS3/RGS16/RGS18) (K562 cells [1]): increased

manganese chloride
induction of differentiation after erythroblast formation (K562 cells [2]; markers CD178/CD88): inhibited
number of days taken for maturation to form erythroblasts (K562 cells [2]; markers CD178/CD88): reduced
induction of differentiation after erythroblast formation (K562 cells [2]; markers CD235/CD71): inhibited
number of days taken for maturation until erythroblast formation (K562 cells [2]; markers CD235/CD71): reduced
induction of differentiation after erythroblast formation (K562 cells [2]; markers Lf/CD88): inhibited
number of days taken for maturation until erythroblast formation (K562 cells [2]; markers Lf/CD88): reduced
